{
  "source": "patent US12268690B2",
  "about": "“Treatments for mutations in acute myeloid leukemia” (OREGON HEALTH & SCIENCE UNIVERSITY, priority 2018, dated 2025)",
  "test_system": "freshly isolated mononuclear cells from AML samples",
  "assay": "Ex vivo functional drug screen (MTS viability, AUC) on primary AML samples, compared by mutation or clinical group",
  "type": "cell-based, human",
  "excerpt": "This panel contained graded concentrations of a drugs with activity against two-thirds of the tyrosine kinome as well as other non-tyrosine kinase pathways, including MAPKs, PI3K/AKT/mTOR, AMPK, ATM, Aurora kinases, CAMKs, CDKs, GSK3a/b, IκK, PKA, PKC, PLK1, and RAF. In addition, the library contained small molecule inhibitors with activity against the BCL2 family, BRD4, Hedgehog, HSP90, NOTCH/gamma-secretase, proteasome, survivin, STAT3, and WNT/beta-catenin. Drug sensitivity patterns were analyzed with respect to clinical and genetic features of tumors. We compared the average area-under-the curve (AUC) values for each drug between the de novo and transformed samples via a series of single factor ANOVAs. […] In addition, we analyzed the concordance of drug sensitivity patterns with respect to predicted target gene, gene family, or pathway for each drug. […] To create a global view of overall sensitivity or resistance of each case, we generated a heatmap of binary sensitive/resistant calls for each sample to each drug.\nCorrelation of drug sensitivity with mutational events was performed by assessing the range of sensitivity of cases with mutation of an individual gene (as well as co-occurring mutational events) versus cases with wild type sequence for that same gene. […] The difference in average drug sensitivity of mutant versus wild type cases for each drug/mutation pair was plotted on the horizontal axis of a volcano plot with a test for statistical significance of the comparison plotted on the vertical axis (corrected for multiple comparison false discovery rate^42; FIG. 4). […] To aid in discovery of potential mutational biomarkers of drug sensitivity, we plotted volcano plots that were specific to each individual drug (versus all possible mutational events) and for each individual gene (versus all possible drugs tested).\nEx vivo drug screens were performed on freshly isolated mononuclear cells from AML samples as previously described^41.\nEx vivo functional drug screens were performed on freshly isolated mononuclear cells from AML samples. […] Drug plates were created using inhibitors purchased from LC Laboratories and Selleck Chemicals and master stocks were reconstituted in DMSO and stored at −80° C. […] DMSO control wells and positive control wells containing a drug combination of Flavopiridol, Staurosporine and Velcade were placed on each plate, with the final concentration of DMSO ≤0.1% in all wells. Daughter plates were created using a V&P Scientific 384-well pin tool head operated by the Caliper Sciclone ALH 3000 and equipped with 0.457 mm diameter, 30 nanoliter, slotted stainless steel pins (cat num: FP1NS30). Daughter and destination plates were sealed with pealable thermal seals using a PlateLoc thermal sealer. Destination plates were stored at −20° C. for no more than three months and thawed immediately before use. Primary mononuclear cells were plated across single-agent inhibitor panels within 24 h of collection. […] After 3 d of culture at 37° C. in 5% CO2, MTS reagent (CellTiter96 AQueous One; Promega) was added, optical density was measured at 490 nm, and raw absorbance values were adjusted to a reference blank value and then used to determine cell viability (normalized to untreated control wells).\nA given sample was run on one or more panels and within each panel, the majority of drugs were run without within-panel replicates. […] An additional set of ‘curve-free’ AUCs was computed for sample-inhibitor pairs run on multiple panels.\nBased on the methodology used in our prior drug combination study^36, a probit regression was fit to all possible run groups using the model: (normalized_viability/100)˜1+log 10(concentration) Where for all groups there were N=7 dose-response measurements. The summary measures of curve fit were inspected and cutoffs were devised removing all runs with an AIC >12 and deviance >2.",
  "data": [
    {"smiles": "C[C@@H](Oc1cc(-c2cnn(C3CCNCC3)c2)cnc1N)c1c(Cl)ccc(F)c1Cl", "note": "[Crizotinib]", "values": [
      {"measurement": "drug sensitivity mutant vs wild type (average difference in AUC; top left quadrant of volcano plot)", "setting": "BCOR", "result": "Crizotinib"},
      {"measurement": "drug sensitivity of mutant cases", "setting": "BCOR mutation alone", "result": "did show sensitivity"},
      {"measurement": "drug sensitivity mutant vs wild type (average difference in AUC; top left quadrant of volcano plot)", "setting": "FLT3_ITD", "result": "crizotinib"},
      {"measurement": "drug sensitivity mutant vs wild type (average difference in AUC; top left quadrant of volcano plot)", "setting": "FLT3_ITD:SRSF2", "result": "crizotinib"},
      {"measurement": "drug sensitivity mutant vs wild type (average difference in AUC; top left quadrant of volcano plot)", "setting": "IDH2", "result": "Crizotinib"},
      {"measurement": "drug sensitivity mutant vs wild type (average difference in AUC; top left quadrant of volcano plot)", "setting": "NPM1:CEBPA", "result": "Crizotinib"},
      {"measurement": "drug sensitivity mutant vs wild type (average difference in AUC; top left quadrant of volcano plot)", "setting": "NPM1:FLT3_ITD", "result": "crizotinib"},
      {"measurement": "drug sensitivity mutant vs wild type (average difference in AUC; top left quadrant of volcano plot)", "setting": "SMC1A", "result": "crizotinib"},
      {"measurement": "drug sensitivity mutant vs wild type (average difference in AUC; top left quadrant of volcano plot)", "setting": "SRSF2:IDH2", "result": "Crizotinib"}
    ]},
    {"smiles": "c1cn2cc(-c3ccc4cn[nH]c4c3)nc(Nc3ccc(N4CCOCC4)cc3)c2n1", "note": "[Entospletinib, 6-(1H-indazol-6-yl)-N-(4-morpholin-4-ylphenyl)imidazo[1,2-a]pyrazin-8-amine]", "values": [
      {"measurement": "drug sensitivity mutant vs wild type (average difference in AUC; top left quadrant of volcano plot)", "setting": "DNMT3A", "result": "Entospletinib"},
      {"measurement": "drug sensitivity mutant vs wild type (average difference in AUC; top left quadrant of volcano plot)", "setting": "DNMT3A:IDH2", "result": "Entospletinib (GS-9973)"},
      {"measurement": "drug sensitivity mutant vs wild type (average difference in AUC; top left quadrant of volcano plot)", "setting": "IDH2", "result": "Entospletinib"},
      {"measurement": "drug sensitivity mutant vs wild type (average difference in AUC; top left quadrant of volcano plot)", "setting": "NPM1", "result": "Entospletinib"},
      {"measurement": "drug sensitivity mutant vs wild type (average difference in AUC; top left quadrant of volcano plot)", "setting": "NPM1:DNMT3A", "result": "Entospletinib"},
      {"measurement": "drug sensitivity mutant vs wild type (average difference in AUC; top left quadrant of volcano plot)", "setting": "NPM1:IDH1", "result": "entospletinib"},
      {"measurement": "drug sensitivity mutant vs wild type (average difference in AUC; top left quadrant of volcano plot)", "setting": "NPM1:IDH2", "result": "entospetinib"},
      {"measurement": "drug sensitivity mutant vs wild type (average difference in AUC; top left quadrant of volcano plot)", "setting": "NPM1:SRSF2", "result": "entospetinib"},
      {"measurement": "drug sensitivity mutant vs wild type (average difference in AUC; top left quadrant of volcano plot)", "setting": "NPM1:TET2: DNMT3A", "result": "Entospetinib"},
      {"measurement": "pattern of drug sensitivity", "setting": "cases with FLT3-ITD and NPM1", "result": "similarly significant pattern of sensitivity"}
    ]},
    {"smiles": "Cn1cc(-c2ccc3nnc(C(F)(F)c4ccc5ncccc5c4)n3n2)cn1", "note": "[JNJ-38877605]", "values": [
      {"measurement": "drug sensitivity mutant vs wild type (average difference in AUC; top left quadrant of volcano plot)", "setting": "BCOR:RUNX1", "result": "JNJ-38877605"}
    ]},
    {"smiles": "CC(C)(C)c1cc(NC(=O)Nc2ccc(-c3cn4c(n3)sc3cc(OCCN5CCOCC5)ccc34)cc2)no1", "note": "[Quizartinib]", "values": [
      {"measurement": "drug sensitivity mutant vs wild type (average difference in AUC; top left quadrant of volcano plot)", "setting": "NPM1", "result": "quizartinib"},
      {"measurement": "drug sensitivity mutant vs wild type (average difference in AUC; top left quadrant of volcano plot)", "setting": "NPM1:DNMT3A", "result": "Quizartinib"},
      {"measurement": "drug sensitivity mutant vs wild type (average difference in AUC; top left quadrant of volcano plot)", "setting": "NPM1:IDH2", "result": "quizartinib"},
      {"measurement": "drug sensitivity mutant vs wild type (average difference in AUC; top left quadrant of volcano plot)", "setting": "NPM1:SRSF2", "result": "quizartinib"}
    ]},
    {"smiles": "COc1ccc(COc2ccc(Cc3cnc(N)nc3N)cc2OC)cc1", "note": "[GW-2580]", "values": [
      {"measurement": "drug sensitivity mutant vs wild type (average difference in AUC; top left quadrant of volcano plot)", "setting": "IDH2", "result": "GW-2580"},
      {"measurement": "drug sensitivity mutant vs wild type (average difference in AUC; top left quadrant of volcano plot)", "setting": "NPM1:IDH2", "result": "GW-2580"},
      {"measurement": "drug sensitivity mutant vs wild type (average difference in AUC; top left quadrant of volcano plot)", "setting": "NPM1:SRSF2", "result": "gw-2580"}
    ]},
    {"smiles": "CNC(=O)c1c(F)cccc1Nc1nc(Nc2cc3c(cc2OC)CCN3C(=O)CN(C)C)nc2[nH]ccc12", "note": "[GSK-1838705A]", "values": [
      {"measurement": "drug sensitivity mutant vs wild type (average difference in AUC; top left quadrant of volcano plot)", "setting": "IDH2", "result": "GSK-1838705A"},
      {"measurement": "drug sensitivity mutant vs wild type (average difference in AUC; top left quadrant of volcano plot)", "setting": "NPM1:IDH2", "result": "GSK-1838705A"},
      {"measurement": "drug sensitivity mutant vs wild type (average difference in AUC; top left quadrant of volcano plot)", "setting": "NPM1:SRSF2", "result": "GSK-183705A"},
      {"measurement": "drug sensitivity mutant vs wild type (average difference in AUC; top left quadrant of volcano plot)", "setting": "SMC1A", "result": "GSK-1838705A"},
      {"measurement": "drug sensitivity mutant vs wild type (average difference in AUC; top left quadrant of volcano plot)", "setting": "SRSF2:IDH2", "result": "GSK-1838705A"}
    ]},
    {"smiles": "O=c1cc(-c2cccc3c2Sc2ccccc2S3)oc(N2CCOCC2)c1", "note": "[KU-55933]", "values": [
      {"measurement": "drug sensitivity mutant vs wild type (average difference in AUC; top left quadrant of volcano plot)", "setting": "ZRSR2", "result": "KU-55933"}
    ]}
  ]
}
